Reference: patent US20100222396A1 (Novartis AG, priority 2009, published 2010)

Tests used:
[1] = biological target: T1, human orexin 2 receptor (hOx2R) (Homo sapiens, UniProt O43614); test: Radioligand binding assay ([125I]orexin A competition), hOx2R; settings: CHO or HEK cell membranes, 1 h room temperature
T1 construct: expressed in transfected cells
T1 sequence (O43614 1-444): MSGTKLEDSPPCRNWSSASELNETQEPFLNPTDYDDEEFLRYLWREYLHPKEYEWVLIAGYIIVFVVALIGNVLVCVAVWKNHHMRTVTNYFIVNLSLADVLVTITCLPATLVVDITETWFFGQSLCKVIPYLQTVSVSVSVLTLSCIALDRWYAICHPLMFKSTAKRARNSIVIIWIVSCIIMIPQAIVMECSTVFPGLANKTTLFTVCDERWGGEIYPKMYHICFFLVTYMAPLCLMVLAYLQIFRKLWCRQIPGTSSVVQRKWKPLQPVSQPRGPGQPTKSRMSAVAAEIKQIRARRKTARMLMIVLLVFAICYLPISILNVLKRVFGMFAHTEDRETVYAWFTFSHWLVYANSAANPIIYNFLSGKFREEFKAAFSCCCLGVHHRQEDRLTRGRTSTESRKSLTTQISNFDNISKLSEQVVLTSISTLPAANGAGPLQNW
Description: (§1) For crude cell membrane preparations, cells (CHO, Chinese hamster ovary or HEK, human embryonic kidney) expressing human orexin 1 or human orexin 2 receptors, were washed with HEPES (10 mM, pH 7.5), scraped off the culture plates with the same buffer, and centrifuged at 4° C. for 5 min at 2500×g. The cell pellet was either stored at −80° C. or used directly. Before the experiments, cell membranes were re-suspended in binding assay buffer (10 mM HEPES, 0.5% (w/v) bovine serum albumin, pH 7.5) by homogenisation with a Polytron homogeniser at 50 Hz for 20 s. Cell membranes were also used as made available by commercial providers.
(§2) In initial saturation experiments (to calculate Bmax), cell homogenates (150 μl) were incubated with 25-300 pM of the radioligand ([^125I]orexin A, 50 μl), 8 concentrations in triplicates in the presence or absence Orexin A (1 μM, 50 μl) to define non specific binding. Bound radioactivity was measured, and data were analysed with the program XLFIT or Graphpad Prism. Protein concentration was determined according to the Bradford/BioRad Protein Assay Kit.
(§3) In competition experiments, cell homogenates (150 μl) were incubated in assay buffer (10 mM HEPES, pH 7.5, 0.5% (w/v) bovine serum albumin, 5 mM MgCl2, […], and tween 0.05%) for 1 h at room temperature with about […] of the radioligand ([^125I]orexin A, 2100 Ci/mmole, 50 μl), and with various concentrations of compounds of the invention (50 μl) in triplicates; non-specific binding was determined in the presence of Orexin A (1 μM). Reactions were terminated by vacuum filtration, 3 washes of ice cold wash buffer (Tris-HCl pH 7.4/10 mM, with NaCl 154 mM). Competition data is expressed in Table 1 as Kd [μM].

[2] = biological target: T2, human orexin 1 receptor (hOx1R) (Homo sapiens, UniProt O43613); test: Calcium accumulation in cells (FLIPR), antagonism of orexin A, hOx1R; type: cell-based; settings: for Kd: cells expressing human orexin 1 receptor, IC50 vs orexin A converted by Cheng and Prusoff correction; for inhibition at 10 µM: measured at a concentration of 10 μM of compound (cells marked ^a)
T2 construct: expressed in transfected cells
T2 sequence (O43613 1-425): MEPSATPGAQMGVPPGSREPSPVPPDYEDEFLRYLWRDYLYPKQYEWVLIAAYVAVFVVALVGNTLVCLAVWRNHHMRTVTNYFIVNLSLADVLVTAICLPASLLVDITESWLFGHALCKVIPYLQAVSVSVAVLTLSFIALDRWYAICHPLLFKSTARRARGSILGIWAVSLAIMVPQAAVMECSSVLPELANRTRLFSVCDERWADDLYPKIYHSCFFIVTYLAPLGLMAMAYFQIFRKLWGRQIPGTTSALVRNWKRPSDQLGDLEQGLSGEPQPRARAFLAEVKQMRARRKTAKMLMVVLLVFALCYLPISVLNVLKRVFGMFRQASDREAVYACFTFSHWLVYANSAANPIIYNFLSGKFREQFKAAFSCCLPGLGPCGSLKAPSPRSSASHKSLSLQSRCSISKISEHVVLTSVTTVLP
Description: (§4) Cells expressing human orexin 1 or human orexin 2 receptors, were seeded at 8,000 cells/well in 384 well black-walled clear bottom, poly-D-lysine coated plates. After 24 h, the medium was removed and cells were washed once with phosphate buffered saline and serum-deprived overnight in assay buffer (130 mM NaCl, 5.4 mM KCl, 1.8 mM CaCl2, 0.8 mM MgSO4, 0.9 mM NaH2PO4, 25 mM glucose, 20 mM HEPES, pH 7.4) containing bovine serum albumin (1% w/v).
(§5) On the day of the experiment, the cells seeded in black plates were treated with assay buffer containing the Ca^2+ sensitive fluorescent dye Fluo-4-AM (2 μM), and probenecid (0.1 mM). After 1 h plates were washed twice with, and resuspended in, assay buffer containing probenecid (0.1 mM) using a multi plate washer. The plates were placed into a FLIPR II (Fluorometric Imaging Plate Reader, Molecular Devices, Sunnyvale, Calif., USA) and baseline fluorescence (fluorescence light units, FLU) was measured (5 measurements, 2 S each; laser excitation 488 nm at 0.6-1 W, CCD camera exposure 0.4 s) before addition of buffer alone (basal) or containing test compounds (either compound of formula I alone, agonist alone or agonist in the presence of various concentrations of compounds of formula I). Fluorescence measurements were then continued every 1 S for 120 S followed by every 4 S for 240 S.
(§6) The measurements were typically made in two sequences:
(§7) Compounds of formula I were tested usually in a concentration range from 10^−9 M to 10^−5 M.
(§8) In the second round, performed one hour later (to allow for equilibration), Orexin A was tested either in the absence (calibration curves, Orexin A agonist controls) or in the presence of compounds of formula I to determine antagonism.

[3] = biological target: T1, human orexin 2 receptor (hOx2R); test: Calcium accumulation in cells (FLIPR), antagonism of orexin A, hOx2R; type: cell-based; settings: for Kd: cells expressing human orexin 2 receptor, IC50 vs orexin A converted by Cheng and Prusoff correction; for inhibition at 10 µM: measured at a concentration of 10 μM of compound (cells marked ^a)
Description: as §4, §5, §6, §7, §8

[4] = biological target: T2, human orexin 1 receptor (hOx1R); test: Radioligand binding assay ([125I]orexin A competition), hOx1R; settings: CHO or HEK cell membranes, 1 h room temperature
Description: as §1, §2, §3

Row | Structure (SMILES) | Kd [1] [nM] | Kd [2] [nM] | Kd [3] [nM] | Kd [4] [nM] | inhibition at 10 µM [2] [%] | inhibition at 10 µM [3] [%]
1 | CCCN(C(=O)c1ccc2c(c1)OCO2)[C@H](CCNC(=O)c1ccccn1)Cc1ccccc1 [Example 13, Pyridine-2-carboxylic acid {(S)-3-[(benzo[1,3]dioxole-5-carbonyl)-propyl-amino]-4-phenyl-butyl}-amide] | 107 | 2210 | 74 | 810 |  | 
2 | CN(C(=O)c1cccc(Br)c1)[C@H](CCNC(=O)c1nc2ccccc2n1C)Cc1ccccc1 [Example 102, 1-Methyl-1H-benzoimidazole-2-carboxylic acid {(S)-3-[(3-bromo-benzoyl)-methyl-amino]-4-phenyl-butyl}-amide] | 2 | 18 | 1 | 28 |  | 
3 | CN(C(=O)c1cccc2c1OCO2)[C@H](CCNC(=O)c1nc2ccccc2n1C)Cc1ccc(F)cc1 [Example 56, 1-Methyl-1H-benzoimidazole-2-carboxylic acid [(S)-3-[(benzo[1,3]dioxole-4-carbonyl)-methyl-amino]-4-(4-fluoro-phenyl)-butyl]-amide] | 2720 |  |  | > 10000 | 1 | 35
4 | CN(C(=O)c1ccccc1)[C@H](CCNC(=O)c1nc2ccccc2n1C)Cc1ccccc1 [Example 48, 1-Methyl-1H-benzoimidazole-2-carboxylic acid [(S)-3-(benzoyl-methyl-amino)-4-phenyl-butyl]-amide] | 940 | 868 | 84 | 2820 |  | 
5 | CCN(C(=O)c1cccc2c1OCO2)[C@H](CCNC(=O)c1ccccn1)Cc1ccccc1 [Example 45, Pyridine-2-carboxylic acid {(S)-3-[(benzo[1,3]dioxole-4-carbonyl)-ethyl-amino]-4-phenyl-butyl}-amide] | 748 | 2710 | 424 | 5330 |  | 
6 | CN(C(=O)c1cc(C(F)(F)F)cc(C(F)(F)F)c1)C(CCNC(=O)c1ccc2c(ccn2C)c1)Cc1ccccc1 (stereo not shown) [Example 60, 1-Methyl-1H-indole-5-carboxylic acid {3-[(3,5-bis-trifluoromethyl-benzoyl)-methyl-amino]-4-phenyl-butyl}-amide] | 3860 | 3470 | 362 | 17500 |  | 
7 | CN(C(=O)c1cccc2cc[nH]c12)[C@H](CCNC(=O)c1ccccn1)Cc1ccccc1 [Example 38, 1H-Indole-7-carboxylic acid {(S)-1-benzyl-3-[(pyridine-2-carbonyl)-amino]-propyl}-methyl-amide] | 590 | 35 | 162 | 86 |  | 
8 | CN(C(=O)c1cc(C(F)(F)F)cc(C(F)(F)F)c1)C(CCNC(=O)c1ccccn1)Cc1ccc(Cl)cc1 (stereo not shown) [Example 16, Pyridine-2-carboxylic acid [3-[(3,5-bis-trifluoromethyl-benzoyl)-methyl-amino]-4-(4-chloro-phenyl)-butyl]-amide] | 74 | 1510 | 44 | > 10000 |  | 
9 | CN(C(=O)c1ccccc1)[C@H](CCNC(=O)c1cccc2c1OCO2)Cc1ccccc1 [Example 32, Benzo[1,3]dioxole-4-carboxylic acid [(S)-3-(benzoyl-methyl-amino)-4-phenyl-butyl]-amide] | 435 |  | 67 | > 10000 | 24 | 
10 | CN(C(=O)c1ccc2c(c1)OCO2)[C@H](CCNC(=O)c1cc2ccccc2n1C)Cc1ccccc1 [Example 75, 1-Methyl-1H-indole-2-carboxylic acid {(S)-3-[(benzo[1,3]dioxole-5-carbonyl)-methyl-amino]-4-phenyl-butyl}-amide] | 473 | 267 | 31 | 705 |  | 
11 | CCOc1cccc(C(=O)N(C)[C@H](CCNC(=O)c2cccn2C)Cc2ccccc2)c1 [Example 121, 1-Methyl-1H-pyrrole-2-carboxylic acid {(S)-3-[(3-ethoxy-benzoyl)-methyl-amino]-4-phenyl-butyl}-amide] | 8 | 696 | 2 | 206 |  | 
12 | CN(C(=O)c1ccc2cc[nH]c2c1)[C@H](CCNC(=O)c1ccccn1)Cc1ccccc1 [Example 64, 1H-Indole-6-carboxylic acid {(S)-1-benzyl-3-[(pyridine-2-carbonyl)-amino]-propyl}-methyl-amide] | 6860 | 1010 | 1070 | 540 |  | 
13 | CN(C(=O)c1cc(C(F)(F)F)cc(C(F)(F)F)c1)[C@@H](CCNC(=O)c1ccccn1)Cc1ccccc1 [Example 74, Pyridine-2-carboxylic acid {(R)-3-[(3,5-bis-trifluoromethyl-benzoyl)-methyl-amino]-4-phenyl-butyl}-amide] | > 10000 | 3260 | 1610 | > 10000 |  | 
14 | Cc1cccc(C(=O)N(C)[C@H](CCNC(=O)c2ccccn2)Cc2ccccc2)c1 [Example 96, Pyridine-2-carboxylic acid {(S)-3-[methyl-(3-methyl-benzoyl)-amino]-4-phenyl-butyl}-amide] | 133 | 474 | 74 | 247 |  | 
15 | CN(C(=O)c1cccc2c1OCO2)[C@H](CCNC(=O)c1ccccn1)Cc1ccc(Cl)cc1 [Example 65, Pyridine-2-carboxylic acid [(S)-3-[(benzo[1,3]dioxole-4-carbonyl)-methyl-amino]-4-(4-chloro-phenyl)-butyl]-amide] | 6980 |  |  | > 10000 | 3 | 41
16 | CN(C(=O)c1cccc2ccccc12)[C@H](CCNC(=O)c1nc2ccccc2n1C)Cc1ccc(Cl)cc1 [Example 26, 1-Methyl-1H-benzoimidazole-2-carboxylic acid {(S)-4-(4-chloro-phenyl)-3-[methyl-(naphthalene-1-carbonyl)-amino]-butyl}-amide] | 308 | 122 | 10 | 3280 |  | 
